Experimental data as given in patent US8658675B2, “Pyridin-4-yl derivatives” (Actelion Pharmaceuticals Ltd., priority 2009, dated 2014).
pEC50: −log10 of the molar value.

Assays:
circulating lymphocytes = experiment: Assessment of in vivo efficacy: circulating lymphocytes after oral administration; parameters: species or system normotensive male Wistar rats; conditions: Rattus norvegicus, Lymphocyte; 6 h after oral administration of 10 mg/kg, male Wistar rats, compared to vehicle group; read-out: Lymphocyte counts
Experimental: The efficacy of the compounds of Formula (I) is assessed by measuring the circulating lymphocytes after oral administration of 3 to 30 mg/kg of a compound of Formula (I) to normotensive male Wistar rats. The animals are housed in climate-controlled conditions with a 12 h-light/dark cycle, and have free access to normal rat chow and drinking water. Blood is collected before and 3, 6 and 24 h after drug administration. Full blood is subjected to hematology using Advia Hematology system (Bayer Diagnostics, Zurich, Switzerland).
All data are presented as mean±SEM. Statistical analyses are performed by analysis of variance (ANOVA) using Statistica (StatSoft) and the Student-Newman-Keuls procedure for multiple comparisons. The null hypothesis is rejected when p<0.05.
Lymphocyte counts 6 h after oral administration have been measured for 23 out of 30 exemplified compounds and are in the range of −42% to −80% with an average of −63%.

human S1P1 receptor = human S1P1 receptor (Homo sapiens, UniProt P21453); experiment: GTPγS assay to determine EC50 values; type: biochemical; conditions: membranes of CHO cells expressing recombinant human S1P1 receptor; 35S-GTPγS binding
Experimental: GTPγS binding assays are performed in 96 well microtiter plates (Nunc, 442587) in a final volume of 200 μl, using membrane preparations of CHO cells expressing recombinant human S1P1 receptor. Assay conditions are 20 mM Hepes (Fluka, 54461), 100 mM NaCl (Fluka, 71378), 5 mM MgCl2 (Fluka, 63064), 0.1% BSA (Calbiochem, 126609), 1 μM GDP (Sigma, G-7127), 2.5% DMSO (Fluka, 41644), […] ^35S-GTPγS (Amersham Biosciences, SJ1320). The pH is 7.4. Test compounds are dissolved and diluted in 100% DMSO and pre-incubated at room temperature for 30 min in 150 μl of the above assay buffer, in the absence of ^35S-GTPγS. After addition of 50 μl of ^35S-GTPγS, the assay is incubated for 1 h at rt. The assay is terminated by transfer of the reaction mixture to a Multiscreen plate (Millipore, MAHFC1H60) using a cell harvester from Packard Biosciences, and the plates are washed with ice-cold 10 mM Na2HPO4/NaH2PO4 (70%/30%), dried, sealed at the bottom and, after addition of 25 μl MicroScint20 (Packard Biosciences, order#6013621), sealed on the top. Membrane-bound ^35S-GTPγS is measured with a TopCount from Packard Biosciences.
EC50 is the concentration of agonist inducing 50% of the maximal specific ^35S-GTPγS binding. Specific binding is determined by subtracting non-specific binding from maximal binding. Maximal binding is the amount of cpm bound to the Multiscreen plate in the presence of 10 μM of S1P. Non-specific binding is the amount of binding in the absence of an agonist in the assay.
Agonistic activities (EC50 values) of all exemplified compounds have been measured.

rat trachea rings = experiment: Measurement of isometric force development: rat trachea ring constriction; parameters: species or system Female Wistar rats; conditions: for % trachea constriction at 1 μM: compound at 1 μM, in % of the constriction induced by 50 mM KCl
Experimental: Animals were obtained from RCC Ltd (Füllinsdorf, Switzerland). Female Wistar rats were euthanized by exposure to CO2. The tracheae were excised and rings from the lower segments were prepared. Rings of trachea were suspended in tissue baths (10 mL) containing Krebs-Henseleit buffer of the following composition (mM): NaCl 115; KCl 4.7; MgSO4 1.2; KH2PO4 1.5; CaCl2 2.5; NaHCO3 25; glucose 10. Bathing solution was maintained at 37° C. and aerated with 95% O2/5% CO2 (pH 7.4). A resting force of 2 g (20 mN) was applied to the ring preparation, and changes in force generation were measured using an isometric force recorder (EMKA Technologies Inc, Paris, France). Viability of rings was assessed by exposure to a depolarizing concentration of KCl (50 mM). Contraction of trachea was expressed as a percentage of the response to KCl.
All compounds were prepared as stock solutions of 0.3 mM in pure DMSO. Compounds were added to the bath (10 mL) in a volume of 33 μL to give a final bath concentration of DMSO of 0.33%.
Contraction of trachea was measured for 15 out of 30 exemplified compounds.

Chain of human S1P1 receptor (P21453 whole entry): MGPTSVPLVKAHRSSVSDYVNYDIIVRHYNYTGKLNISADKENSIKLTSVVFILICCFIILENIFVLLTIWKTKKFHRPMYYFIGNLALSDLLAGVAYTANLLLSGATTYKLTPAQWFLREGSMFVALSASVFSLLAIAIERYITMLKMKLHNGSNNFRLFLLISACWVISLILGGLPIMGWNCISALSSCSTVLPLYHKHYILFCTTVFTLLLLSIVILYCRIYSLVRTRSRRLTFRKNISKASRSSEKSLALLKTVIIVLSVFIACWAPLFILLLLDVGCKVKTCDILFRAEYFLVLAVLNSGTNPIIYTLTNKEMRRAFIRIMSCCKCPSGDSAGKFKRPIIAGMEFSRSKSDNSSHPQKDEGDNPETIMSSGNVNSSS

Structure (SMILES) | change in vivo at 10 mg/kg (circulating lymphocytes) [%] | pEC50 (human S1P1 receptor) | % trachea constriction at 1 μM (rat trachea rings) [%] | potential to constrict rat trachea rings (comparison in words) (rat trachea rings; compared to closest prior art analogues of WO 2008/029371 or to Example 2)
CCc1cc(-c2nnc(-c3cc(OC)nc(C4CCCC4)c3)o2)cc(C)c1OC[C@@H](O)CO [Example 25, (S)-3-{4-[5-(2-Cyclopentyl-6-methoxy-pyridin-4-yl)-[1,3,4]oxadiazol-2-yl]-2-ethyl-6-methyl-phenoxy}-propane-1,2-diol] | -51 | 8.72 | 53 | 
CCc1cc(-c2noc(-c3cc(OC)nc(C(CC)CC)c3)n2)cc(C)c1OC[C@@H](O)CN(C)C(=O)CO [Example 9, N-[(2S)-3-(2-Ethyl-4-{5-[2-(1-ethyl-propyl)-6-methoxy-pyridin-4-yl]-[1,2,4]oxadiazol-3-yl}-6-methyl-phenoxy)-2-hydroxy-propyl]-2-hydroxy-N-methyl-acetamide] |  | 7.75 |  | 
CCc1cc(-c2noc(-c3cc(CCC(C)C)nc(OC)c3)n2)cc(C)c1NS(C)(=O)=O [Example 30, N-(2-Ethyl-4-(5-(2-isopentyl-6-methoxypyridin-4-yl)-1,2,4-oxadiazol-3-yl)-6-methylphenyl)methanesulfonamide] |  | 8.25 |  | 
COc1cc(-c2nc(-c3cc(C)c(OC[C@@H](O)CO)c(Cl)c3)no2)cc(C2CCCC2)n1 [Example 13, (S)-3-{2-Chloro-4-[5-(2-cyclopentyl-6-methoxy-pyridin-4-yl)-[1,2,4]oxadiazol-3-yl]-6-methyl-phenoxy}-propane-1,2-diol] | -60 | 9.00 | <5 | 
COc1cc(-c2nc(-c3cc(C)c(OC[C@@H](O)CNC(=O)CO)c(Cl)c3)no2)cc(C2CCCC2)n1 [Example 14, N-((2S)-3-{2-Chloro-4-[5-(2-cyclopentyl-6-methoxy-pyridin-4-yl)-[1,2,4]oxadiazol-3-yl]-6-methyl-phenoxy}-2-hydroxy-propyl)-2-hydroxy-acetamide] | -70 | 8.96 |  | 
CCc1cc(-c2noc(-c3cc(OC)nc(C4CCCCC4)c3)n2)cc(C)c1OC[C@@H](O)CO [Example 4, (S)-3-{4-[5-(2-Cyclohexyl-6-methoxy-pyridin-4-yl)-[1,2,4]oxadiazol-3-yl]-2-ethyl-6-methyl-phenoxy}-propane-1,2-diol] | -61 | 8.19 | <5 | 
CCc1cc(-c2nc(-c3cc(OC)nc(C4CCCC4)c3)no2)cc(C)c1OC[C@@H](O)CO [Example 21, (S)-3-{4-[3-(2-Cyclopentyl-6-methoxy-pyridin-4-yl)-[1,2,4]oxadiazol-5-yl]-2-ethyl-6-methyl-phenoxy}-propane-1,2-diol] | -62 | 9.15 | <5 | same low potential to constrict rat trachea rings
CCc1cc(-c2nnc(-c3cc(OC)nc(C4CCCC4)c3)o2)cc(C)c1OC[C@H](O)CNC(=O)CO [Example 28, N-((2R)-3-{4-[5-(2-Cyclopentyl-6-methoxy-pyridin-4-yl)-[1,3,4]oxadiazol-2-yl]-2-ethyl-6-methyl-phenoxy}-2-hydroxy-propyl)-2-hydroxy-acetamide] |  | 8.64 |  | 
CCc1cc(-c2nnc(-c3cc(OC)nc(C4CCCC4)c3)o2)cc(C)c1OC[C@H](O)CO [Example 26, (R)-3-{4-[5-(2-Cyclopentyl-6-methoxy-pyridin-4-yl)-[1,3,4]oxadiazol-2-yl]-2-ethyl-6-methyl-phenoxy}-propane-1,2-diol] |  | 8.40 |  | 
CCc1cc(-c2nnc(-c3cc(OC)nc(C4CCCC4)c3)o2)cc(C)c1OC[C@@H](O)CNC(=O)CO [Example 27, N-((2S)-3-{4-[5-(2-Cyclopentyl-6-methoxy-pyridin-4-yl)-[1,3,4]oxadiazol-2-yl]-2-ethyl-6-methyl-phenoxy}-2-hydroxy-propyl)-2-hydroxy-acetamide] | -54 | 8.77 |  | 
CCc1cc(-c2nc(-c3cc(OC)nc(C4CCCC4)c3)no2)cc(C)c1OC[C@H](O)CO [Example 22, (R)-3-{4-[3-(2-Cyclopentyl-6-methoxy-pyridin-4-yl)-[1,2,4]oxadiazol-5-yl]-2-ethyl-6-methyl-phenoxy}-propane-1,2-diol] |  | 9.00 |  | 
COc1cc(-c2nc(-c3cc(C)c(NS(C)(=O)=O)c(Cl)c3)no2)cc(C2CCCCC2)n1 [Example 17, N-{2-Chloro-4-[5-(2-cyclohexyl-6-methoxy-pyridin-4-yl)-[1,2,4]oxadiazol-3-yl]-6-methyl-phenyl}-methanesulfonamide] | -80 | 7.99 |  | 
CCC(CC)c1cc(-c2nc(-c3cc(C)c(NS(C)(=O)=O)c(Cl)c3)no2)cc(OC)n1 [Example 11, N-(2-Chloro-4-{5-[2-(1-ethyl-propyl)-6-methoxy-pyridin-4-yl]-[1,2,4]oxadiazol-3-yl}-6-methyl-phenyl)-methanesulfonamide] | -74 | 8.92 |  | 
CCc1cc(-c2noc(-c3cc(CCC(C)C)nc(OC)c3)n2)cc(C)c1OC[C@@H](O)CO [Example 15, (S)-3-(2-Ethyl-4-{5-[2-methoxy-6-(3-methyl-butyl)-pyridin-4-yl]-[1,2,4]oxadiazol-3-yl}-6-methyl-phenoxy)-propane-1,2-diol] |  | 8.12 |  | 
COc1cc(-c2nc(-c3cc(C)c(OC[C@@H](O)CO)c(Cl)c3)no2)cc(C2CCCCC2)n1 [Example 29, (S)-3-{2-Chloro-4-[5-(2-cyclohexyl-6-methoxy-pyridin-4-yl)-[1,2,4]oxadiazol-3-yl]-6-methyl-phenoxy}-propane-1,2-diol] | -62 | 8.40 |  | 
CCc1cc(-c2noc(-c3cc(OC)nc(C4CCCCC4)c3)n2)cc(C)c1NS(C)(=O)=O [Example 20, N-{4-[5-(2-Cyclohexyl-6-methoxy-pyridin-4-yl)-[1,2,4]oxadiazol-3-yl]-2-ethyl-6-methyl-phenyl}-methanesulfonamide] | -67 | 8.38 |  | 
CCS(=O)(=O)Nc1c(C)cc(-c2noc(-c3cc(OC)nc(C4CCCC4)c3)n2)cc1Cl [Example 5, Ethanesulfonic acid {2-chloro-4-[5-(2-cyclopentyl-6-methoxy-pyridin-4-yl)-[1,2,4]oxadiazol-3-yl]-6-methyl-phenyl}-amide] | -66 | 8.74 |  | 
CCc1cc(-c2nc(-c3cc(OC)nc(C4CCCC4)c3)no2)cc(C)c1OC[C@H](O)CNC(=O)CO [Example 24, N-((2R)-3-{4-[3-(2-Cyclopentyl-6-methoxy-pyridin-4-yl)-[1,2,4]oxadiazol-5-yl]-2-ethyl-6-methyl-phenoxy}-2-hydroxy-propyl)-2-hydroxy-acetamide] |  | 8.80 |  | 
CCc1cc(-c2nc(-c3cc(OC)nc(C4CCCC4)c3)no2)cc(C)c1OC[C@@H](O)CNC(=O)CO [Example 23, N-((2S)-3-{4-[3-(2-Cyclopentyl-6-methoxy-pyridin-4-yl)-[1,2,4]oxadiazol-5-yl]-2-ethyl-6-methyl-phenoxy}-2-hydroxy-propyl)-2-hydroxy-acetamide] | -56 | 9.40 |  | 
